Assay results taken from patent publication US8314120B2, “Small molecule potentiators of metabotropic glutamate receptors” (Abbott GmbH & Co. KG, priority 2010, dated 2012).
Where a name gives a salt, the structure may show the parent alone. Read-outs that look alike come from different tables or passages of the source.

How the values were obtained:
mGlu2 [1] = target: T1, mGlu2 (Homo sapiens, UniProt Q14416); assay: FLIPR intracellular Ca2+ assay, potentiation of glutamate at mGlu2 receptor in HEK293 cell clone; assay type: cell-based; design: V5/His (named in the vector only); expressed in transfected cells; host or cells: HEK293; conditions: potentiation of 1 μM glutamate, HEK293 cells expressing human mGlu2, rGLAST and Galpha16
T1 sequence (Q14416 19-872): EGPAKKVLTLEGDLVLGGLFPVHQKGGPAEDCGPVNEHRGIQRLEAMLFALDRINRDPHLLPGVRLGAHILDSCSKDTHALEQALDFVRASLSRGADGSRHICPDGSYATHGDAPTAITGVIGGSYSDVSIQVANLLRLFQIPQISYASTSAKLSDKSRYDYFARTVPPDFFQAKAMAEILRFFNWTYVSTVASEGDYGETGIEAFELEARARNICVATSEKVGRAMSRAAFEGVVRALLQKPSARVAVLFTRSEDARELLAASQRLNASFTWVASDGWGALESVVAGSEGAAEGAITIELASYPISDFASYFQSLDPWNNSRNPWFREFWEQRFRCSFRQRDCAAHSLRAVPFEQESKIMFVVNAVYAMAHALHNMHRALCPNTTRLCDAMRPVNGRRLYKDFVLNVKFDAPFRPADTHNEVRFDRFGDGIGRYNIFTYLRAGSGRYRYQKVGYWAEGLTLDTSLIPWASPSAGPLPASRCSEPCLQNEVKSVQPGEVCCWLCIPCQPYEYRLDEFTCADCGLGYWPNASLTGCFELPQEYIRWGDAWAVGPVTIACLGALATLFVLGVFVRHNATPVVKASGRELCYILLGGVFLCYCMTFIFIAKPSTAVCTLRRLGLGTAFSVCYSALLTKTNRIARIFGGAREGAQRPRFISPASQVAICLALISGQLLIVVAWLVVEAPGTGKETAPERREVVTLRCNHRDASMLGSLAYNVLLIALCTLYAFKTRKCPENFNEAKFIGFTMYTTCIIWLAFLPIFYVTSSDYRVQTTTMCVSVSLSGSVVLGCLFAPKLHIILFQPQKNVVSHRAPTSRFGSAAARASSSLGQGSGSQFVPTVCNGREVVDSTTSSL
Procedure: For the purpose of the present study, a cell line permanently expressing the human mGlu2 receptor, the rat glutamate transporter rGLAST and the alpha subunit of G16 was generated by transfection. Briefly, HEK293 cells were seeded in petri dishes (diameter 15 cm) at a density of 2×10^6 cells in DMEM with glutamax (Invitrogen, GIBCO #21885-025), 10% dialyzed Fetal Calf Serum (Invitrogen, Gibco #26400-044), and incubated at 37° C. over night. The following day cells were transfected with Lipofectamine (Invitrogen, Gibco #18324-012) as recommended by the manufacturer, using linearized pcDNA3.1 (V5/His)-hmGlu2 receptor (ScaI) and pcDNA3.1 Zeo-Ga16 IRES rGLAST (SspI). After transfection the cells were selected in DMEM Glutamax Medium (Invitrogen, GIBCO #21885-025), containing 10% dialyzed fetal calf serum (FCS; (Invitrogen, Gibco #26400-044), antibiotic/antimycotic, 800 μg/ml Geneticin (G418) and 250 μg/ml Zeozin. Single clones were isolated manually and further subcloned by serial dilution.
The function of the mGlu2 receptor was determined by evaluating intracellular Ca^2+ concentrations under standard conditions in a fluorometric imaging plate reader (FLIPR, Molecular Devices, Union City, Calif. 94587, USA) by measuring the response of the cells to a test compound. The FLIPR assay is a common functional assay to monitor native or recombinant Galphaq-coupled receptors, and native or recombinant receptors normally linked to other G-protein signalling cascades, which are coupled to calcium through co-expression of an alpha subunit of a promiscuous or chimeric G-protein. In the assay the increase of intracellular calcium is measured through a calcium-dependent fluorescent dye (e.g. Fluo-4 AM) in the FLIPR instrument.
For selection of a suitable cell clone and also the subsequent measurements of the selected clone, 4×10^4 cells/well were plated on poly-D-lysine coated Biocoat-plates multiwell 96 in DMEM Glutamax (GIBCO #21885-025)/10% dialyzed FCS over night. The following day, the medium was aspirated and exchanged for glutamate-free DMEM (Gibco #21969-035), without FCS or glutamine, containing 50 μg/ml gentamycin (Gibco #15750). Cells were again incubated over night. Before the measurement, cells were loaded with 2 μM Fluo-4 AM (Molecular Probes, F14201; stock solution 1 mM in DMSO) and 0.02% Pluronic F127 (Molecular Probes, P3000; stock solution 10% in DMSO) in DMEM medium (Gibco #21969-035) for 45 minutes at 37° C. in a final volume of 100 μl per well. Finally, the plates were washed in a BioTec cell washer with HBSS, containing 20 mM HEPES. The end-volume in each well was 100 μl. The plates were subsequently measured in a fluorometric imaging plate reader (FLIPR, Molecular Devices, Union City, Calif. 94587, USA).
The compounds of the present invention were tested in the above-described FLIPR assay using the selected cell clone. Increased intracellular calcium levels were quantified following addition of test compound (agonism), as well as following addition of a submaximal concentration of 1 micromolar (1 μM) glutamate (potentiation).
For the determination of the effect of the test compound by itself (agonism) or by increasing the response to a submaximal concentration (e.g. 1 μM) of glutamate (potentiation), the resulting signal is determined by subtraction of the background fluorescence from the maximal fluorescent peak height of the respective response. In the FLIPR instrument the compound is given to the cell and its fluorescence response quantified by the FLIPR instrument (agonism). The concentration at which the compound exerts half its maximal effect is named the ‘effective concentration 50’ or ‘EC50’. The maximal effect induced by the test substance is normalized to the maximal effect exerted by 100 μM glutamate (set at 100%).
Ten minutes after addition of the test compound to the plate, 1 μM glutamate is added. A potentiator enhances the response of the receptor to glutamate. […]

mGlu2 [2] = target: T1, mGlu2; conditions: agonist; cited from earlier work

In the case of `COCCN1Cc2cc(Nc3cncc(-c4ccccc4)c3)ccc2C1=O` [Example 19, 2-(2-methoxyethyl)-5-[(5-phenylpyridin-3-yl)amino]-2,3-dihydro-1H-isoindol-1-one], the EC50 (mGlu2 [1]) is reported as 500 to 2000 nM.

In the case of `CCCCN1CCc2cc(Oc3cncc(-c4ccccc4)c3)ccc2C1=O` [Example 14, 2-butyl-6-[(5-phenylpyridin-3-yl)oxy]-3,4-dihydroisoquinolin-1(2H)-one trifluoroacetate], the EC50 (mGlu2 [1]) is reported as under 500 nM.

Compound `CCCCN1Cc2c(Oc3cncc(-c4ccccc4)c3)cccc2C1=O` [Example 12, 2-butyl-4-[(5-phenylpyridin-3-yl)oxy]-2,3-dihydro-1H-isoindol-1-one trifluoroacetate] has an EC50 (mGlu2 [1]) of under 500 nM.

`CCCCN1Cc2cc(Oc3cncc(-c4ccccc4)c3)ccc2C1=O` [Example 11, 2-butyl-5-[(5-phenylpyridin-3-yl)oxy]-2,3-dihydro-1H-isoindol-1-one] showed an EC50 (mGlu2 [1]) of under 500 nM.

Compound `CCCCN1CCc2c(Oc3cc(N4CCN(C)CC4)cnc3Cl)cccc2C1=O` [Example 22, 2-butyl-5-{[2-chloro-5-(4-methylpiperazin-1-yl)pyridin-3-yl]oxy}-3,4-dihydroisoquinolin-1(2H)-one] has an EC50 (mGlu2 [1]) of 500 to 2000 nM.

`CCCCN1Cc2cc(Nc3cc(N4CCN(C)CC4)cnc3Cl)ccc2C1=O` [Example 9, 2-butyl-5-{[2-chloro-5-(4-methylpiperazin-1-yl)pyridin-3-yl]amino}-2,3-dihydro-1H-isoindol-1-one] gave an EC50 (mGlu2 [1]) of 500 to 2000 nM.

Compound `CCCCN1Cc2cc(Nc3cnc4ccccc4c3)ccc2C1=O` [Example 17, 2-butyl-5-(quinolin-3-ylamino)-2,3-dihydro-1H-isoindol-1-one] has an EC50 (mGlu2 [1]) of 500 to 2000 nM.

`CCCCN1Cc2cc(Nc3cccnc3Cl)ccc2C1=O` [Example 20, 2-butyl-5-[(2-chloropyridin-3-yl)amino]-2,3-dihydro-1H-isoindol-1-one] showed an EC50 (mGlu2 [1]) of 2000 to 10000 nM.

With `CCCCN1Cc2cc(Nc3cncc(Cl)c3)ccc2C1=O` [Example 7, 2-butyl-5-[(5-chloropyridin-3-yl)amino]-2,3-dihydro-1H-isoindol-1-one] the EC50 (mGlu2 [1]) was 500 to 2000 nM.

Compound `CCCCN1CCc2c(Oc3cc(N4CCNCC4)cnc3Cl)cccc2C1=O` [Example 21, 2-butyl-5-{[2-chloro-5-(piperazin-1-yl)pyridin-3-yl]oxy}-3,4-dihydroisoquinolin-1(2H)-one] has an EC50 (mGlu2 [1]) of 500 to 2000 nM.

For `N[C@@]1(C(=O)O)CO[C@H]2[C@H](C(=O)O)[C@H]21` [LY379268], the EC50 (mGlu2 [2]) is listed as 3 nM.

`CCCCN1Cc2cc(-c3cncc(-c4ccccc4)c3)ccc2C1=O` [Example 24, 2-butyl-5-(5-phenylpyridin-3-yl)-2,3-dihydro-1H-isoindol-1-one] showed an EC50 (mGlu2 [1]) of 500 to 2000 nM.

`CCCCN1Cc2cc(Cc3cncc(-c4ccccc4)c3)ccc2C1=O` [Example 23, 2-butyl-5-[(5-phenylpyridin-3-yl)methyl]-2,3-dihydro-1H-isoindol-1-one] gave an EC50 (mGlu2 [1]) of 500 to 2000 nM.

`CCCCN1Cc2cc(Nc3cc(N4CCNCC4)cnc3Cl)ccc2C1=O` [Example 6, 2-butyl-5-{[2-chloro-5-(piperazin-1-yl)pyridin-3-yl]amino}-2,3-dihydro-1H-isoindol-1-one] showed an EC50 (mGlu2 [1]) of 2000 to 10000 nM.

For `CCCCN1CCc2c(Oc3cncc(-c4ccccc4)c3)cccc2C1=O` [Example 13, 2-butyl-5-[(5-phenylpyridin-3-yl)oxy]-3,4-dihydroisoquinolin-1(2H)-one trifluoroacetate], the EC50 (mGlu2 [1]) was under 500 nM.

Work on `CCCCN1Cc2cc(Nc3cnc4ccccc4n3)ccc2C1=O` [Example 18, 2-butyl-5-(quinoxalin-2-ylamino)-2,3-dihydro-1H-isoindol-1-one] yielded an EC50 (mGlu2 [1]) of 2000 to 10000 nM.

With `CCCCN1Cc2cc(Nc3cncc(N4CCNCC4)c3)ccc2C1=O` [Example 5, 2-butyl-5-{[5-(piperazin-1-yl)pyridin-3-yl]amino}-2,3-dihydro-1H-isoindol-1-one] the EC50 (mGlu2 [1]) was 2000 to 10000 nM.

Work on `CCCCN1Cc2cc(Nc3cncc(N4CCN(C)CC4)c3)ccc2C1=O` [Example 10, 2-butyl-5-{[5-(4-methylpiperazin-1-yl)pyridin-3-yl]amino}-2,3-dihydro-1H-isoindol-1-one] yielded an EC50 (mGlu2 [1]) of 2000 to 10000 nM.

Work on `CCCCN1Cc2cc(Nc3cncc(-c4ccccc4)n3)ccc2C1=O` [Example 16, 2-butyl-5-(6-phenyl-pyrazin-2-ylamino)-2,3-dihydro-isoindol-1-one] yielded an EC50 (mGlu2 [1]) of under 500 nM.

In the case of `CCCCN1Cc2cc(Nc3cncc(-c4ccccc4)c3)cc(Cl)c2C1=O` [Example 4, 2-butyl-7-chloro-5-[(5-phenylpyridin-3-yl)amino]-2,3-dihydro-1H-isoindol-1-one], the EC50 (mGlu2 [1]) is reported as 500 to 2000 nM.

`CCCCN1Cc2cc(Nc3cncc(N4CCOCC4)c3)ccc2C1=O` [Example 8, 2-butyl-5-{[5-(morpholin-4-yl)pyridin-3-yl]amino}-2,3-dihydro-1H-isoindol-1-one] showed an EC50 (mGlu2 [1]) of under 500 nM.

`CCCCN1Cc2ccc(Oc3cncc(-c4ccccc4)c3)cc2C1=O` [Example 15, 2-butyl-6-[(5-phenylpyridin-3-yl)oxy]-2,3-dihydro-1H-isoindol-1-one trifluoroacetate] gave an EC50 (mGlu2 [1]) of 500 to 2000 nM.
